Experimental data from patent US20080175974A1, “Isomaltulose as an Aftertaste-Shortening Agent” (Suedzucker Aktiengesellschaft Mannheim/Ochsenfurt, priority 2005, published 2008).

Tests used:
[1] = cited from earlier work
test subjects [2] = test: Sensory evaluation of aqueous solutions containing sucralose (aftertaste); format: in vivo, humans; details: aqueous solution 7.916% isomaltulose, 0.004% sucralose; 5 test subjects; assessed immediately following consumption; compared with maltodextrin or saccharose solutions; scale 0=no perceptible aftertaste, 2=clearly perceptible
Procedure: Aqueous solutions containing sucralose were prepared, which contained isomaltulose, maltodextrin or saccharose as a sweetener. All the solutions also contained sucralose. […] Samples: • Maltodextrin solution: 7.916% maltodextrin; 0.004% sucralose; 92.080% water • Palatinose™ solution: 7.916% isomaltulose; 0.004% sucralose; 92.080% water • Saccharose solution: 5.603% saccharose; 0.004% sucralose; 94.393% water The sensory evaluation of the solutions containing sucralose was performed by 5 test subjects. The aftertaste of the sucralose was assessed immediately following consumption of the solution containing sucralose.

[3] = water; cited from earlier work
test subjects [4] = test: Sensory evaluation of milk chocolate containing sucralose (aftertaste); format: in vivo, humans; details: milk chocolate with 42.41 g/100 g isomaltulose and 0.02 g/100 g sucralose; 12 to 17 test subjects; assessed after chocolate completely dissolved in the mouth; compared with trehalose, lactite, maltite, erythrite chocolates; FIG. 1
Procedure: Milk chocolates containing sucralose were produced, which contained either a sugar substitute or isomaltulose (Palatinose™) as the sweetener that is absorbed by the body. These milk chocolates were evaluated sensorially with respect to their aftertaste that is typical of sucralose.
“You have before you samples of chocolate containing sucralose. Sucralose has a pronounced, lingering aftertaste. The following samples are to be evaluated with regard to whether, and if so to what extent, this aftertaste is perceptible.
Please take a serving of chocolate (1 “square”) and suck on it. […] Then please assess the aftertaste of the sample.
To neutralize the taste, please have some of the prepared tea and the white bread.”
Samples: • Milk chocolate containing sucralose with isomaltulose • Milk chocolate containing sucralose with trehalose • Milk chocolate containing sucralose with lactite • Milk chocolate containing sucralose with maltite • Milk chocolate containing sucralose with erythrite
The sensory evaluation of the chocolates containing sucralose was performed by 12 to 17 test subjects.
The aftertaste of the sucralose was assessed after the chocolate had been completely dissolved in the mouth.

SMILES	sweetening power ([1]; 10% aqueous isomaltulose solutions)	lingering aftertaste of sucralose (test subjects [2])	aqueous solubility [3]	lingering aftertaste of sucralose (test subjects [4])	sweetness relative to sugar ([1]; sucralose in aqueous solution)
O=C(CO)[C@@H](O)[C@H](O)[C@H](O)CO[C@H]1O[C@H](CO)[C@@H](O)[C@H](O)[C@H]1O [isomaltulose, 6-O-α-D-glucopyranosyl-fructose]	approximately 0.4 of the sweetening power of sugar	decreases the lingering aftertaste	0.49 g anhydrous isomaltulose per gram of water	decreases the lingering aftertaste	
OC[C@H]1O[C@H](O[C@]2(CCl)O[C@H](CCl)[C@@H](O)[C@@H]2O)[C@H](O)[C@@H](O)[C@H]1Cl [sucralose, 1,6-dichloro-1,6-didesoxy-β-D-fructofuranosyl-4-chloro-4-desoxy-α-D-galactopyranoside]					approximately 600 times sweeter than sugar
